Measurements from PubChem BioAssay (NCI).
Where “and” joins values, the source holds several entries; their conditions need not be identical. Equal values may be shown once.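 Dose response: 5 concentrations. Exposure: 48 h. Format: 96-well plates. Endpoint: linear interpolation; highest concentration if not reached. At the GI50, growth is halved. TGI denotes the concentration required for complete inhibition of growth.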

Key:
Experiment in all cases: NCI-60 cell line screen, 48 h
786-0 renal = test system: 786-0 renal
EKVX NSCLC = test system: EKVX NSCLC
HOP-62 NSCLC = test system: HOP-62 NSCLC
KM12 colon = test system: KM12 colon
MCF7 breast = test system: MCF7 breast
SF-295 CNS = test system: SF-295 CNS
SK-MEL-28 melanoma = test system: SK-MEL-28 melanoma
SK-MEL-5 melanoma = test system: SK-MEL-5 melanoma
SW-620 colon = test system: SW-620 colon
UO-31 renal = test system: UO-31 renal

SMILES	TGI (786-0 renal)	TGI (EKVX NSCLC)	TGI (HOP-62 NSCLC)	TGI (KM12 colon)	TGI (MCF7 breast)	TGI (SF-295 CNS)	TGI (SK-MEL-28 melanoma)	TGI (SK-MEL-5 melanoma)	TGI (SW-620 colon)	TGI (UO-31 renal)	GI50 (786-0 renal)	GI50 (EKVX NSCLC)	GI50 (HOP-62 NSCLC)	GI50 (KM12 colon)	GI50 (MCF7 breast)	GI50 (SF-295 CNS)	GI50 (SK-MEL-28 melanoma)	GI50 (SK-MEL-5 melanoma)	GI50 (SW-620 colon)	GI50 (UO-31 renal)
C1CSCCSCCCSCCSCCCSCCSCCCSCCSC1	> 100 µM	> 100 µM	> 100 µM	> 100 µM	> 100 µM	> 100 µM	> 100 µM	> 100 µM	> 100 µM	> 100 µM										
CN1CCc2nc3sc(C(N)=O)c(N)c3c(-c3cccs3)c2C1	> 100 µM	> 100 µM	> 100 µM	> 100 µM	> 100 µM	> 100 µM	9.59 µM	5.24 µM	> 100 µM	> 100 µM	4.41 µM	3.54 µM	3.27 µM	2.7 µM	4.1 µM	3.61 µM	2.91 µM	1.43 µM	4.02 µM	3.47 µM
Fc1ccc(/C=N/n2c(-c3ccc(F)c(Cl)c3)n[nH]c2=S)cc1	38.3 µM	> 100 µM	31.4 µM	> 100 µM	43 µM	76.8 µM	> 100 µM	> 100 µM	> 100 µM	41.5 µM	19.6 µM	32.3 µM	16.7 µM	43.6 µM	19.7 µM	31.7 µM	42.1 µM	42.9 µM	30.2 µM	18.9 µM
CCN1C(=O)N(CC)C2C1NN=c1s/c(=C\c3ccc(F)cc3)c(=O)n12 (configuration not stated)	> 100 µM	> 100 µM	> 100 µM	> 100 µM	> 100 µM	> 100 µM	> 100 µM	5.7 µM	> 100 µM	> 100 µM	0.702 µM	0.396 µM	0.287 µM	0.0913 µM	0.0454 µM	0.0819 µM	0.599 µM	0.0865 µM	0.14 µM	0.601 µM
c1cc(N2CCN(c3ccc(C4=NCCCN4)cc3)CC2)ccc1C1=NCCCN1	> 100 µM	> 100 µM	> 100 µM	> 100 µM	> 100 µM	> 100 µM	> 100 µM	> 100 µM	> 100 µM	> 100 µM	> 100 µM	> 100 µM	> 100 µM	> 42.1 µM	> 57.5 µM	> 25.1 µM	> 100 µM	21.2 µM	> 62.6 µM	> 100 µM
CSc1ccc(C2=NN(C(C)=O)C(c3ccc(-c4ccc(Cl)cc4)o3)C2)cc1 (configuration not stated)	> 100 µM	> 100 µM	> 100 µM	> 100 µM	> 100 µM	> 100 µM	> 100 µM	> 100 µM	> 100 µM	> 100 µM	38.8 µM	50.2 µM	42.4 µM	24 µM	39.9 µM	34 µM	86.2 µM	29.1 µM	77.7 µM	28.5 µM
Nc1n[nH]c2ccc([C@@H]3Nc4cc5c(cc4[C@H]4C6CCC(C6)[C@@H]34)C(=O)NC5)cc12 (some centres not stated)	> 100 µM	> 100 µM	> 100 µM	> 100 µM	> 100 µM	> 42 µM	> 100 µM	0.612 µM	> 100 µM	> 100 µM	0.557 µM	0.734 µM	0.513 µM	0.472 µM	0.18 µM	0.323 µM	4.17 µM	0.232 µM	0.362 µM	
COc1cc(C(=O)c2cc(C)c3[nH]c4ccc(O)cc4c3c2C)cc(OC)c1OC	> 22.2 µM	> 100 µM	> 70.9 µM	23.8 µM	> 44.4 µM	0.326 µM	> 100 µM	0.0637 µM	> 100 µM	> 100 µM	< 0.0184 µM	0.0466 µM	0.0297 µM	< 0.0127 µM	< 0.01 µM	< 0.01 µM	3.66 µM	0.0162 µM	< 0.0129 µM	0.269 µM
COc1ccc(/C=C(/C)[N+](=O)[O-])cc1OC	3.39 µM and 3.36 µM	28.6 µM and 19.8 µM	4.36 µM and 14.8 µM	9.69 µM and 5.79 µM	3.26 µM and 2.57 µM	32.4 µM and 27.1 µM	3.66 µM and 3.6 µM	3.09 µM and 3.43 µM	3.04 µM and 2.7 µM	3.26 µM and 3.23 µM	1.89 µM and 1.79 µM	10.9 µM and 5.4 µM	2.03 µM and 4.17 µM	3.66 µM and 2.1 µM	1.23 µM and 1.09 µM	17.4 µM and 12.5 µM	1.76 µM and 1.87 µM	1.71 µM and 1.9 µM	1.56 µM and 1.1 µM	1.74 µM and 1.61 µM
CN1CCN(CCCCCN=c2cc3c(=O)n(CCCCCN4CCN(C)CC4)c(=O)c4c(NCCCCCN5CCN(C)CC5)cc5c(O)n(CCCCCN6CCN(C)CC6)c(=O)c2c5c4-3)CC1	> 100 µM	17.2 µM	12.2 µM	8.39 µM	7.41 µM	57.2 µM	8.14 µM	58.8 µM	31.6 µM	> 100 µM	> 100 µM	2.93 µM	2.45 µM	2.49 µM	2.52 µM	15.7 µM	2.96 µM	14.1 µM	3.31 µM	75 µM
COc1cc(/C=C/c2ccc3c(Br)cc(Br)c(O)c3n2)ccc1O	6.93 µM	14.9 µM	8.07 µM	13.2 µM	12.5 µM	14.4 µM	12.9 µM	10.3 µM	13 µM	12.4 µM	1.69 µM	1.42 µM	1.51 µM	1.41 µM	1.53 µM	0.912 µM	3.16 µM	1.47 µM	2.24 µM	1.28 µM
CC(CO)(Nc1ccc([N+](=O)[O-])cc1[N+](=O)[O-])C(=O)O (configuration not stated)	> 100 µM	71.3 µM	> 100 µM	> 100 µM	32.1 µM	> 100 µM	43.5 µM	44.5 µM	33.4 µM	37.4 µM										
COc1cc(-c2nn(-c3cccc(NC(=O)CCN4CCN(Cc5ccccc5)CC4)c3)cc2-c2ccncc2)ccc1Cl	3.02 µM	17.5 µM	12.4 µM	3.86 µM	3.27 µM	1.95 µM	2.84 µM	2.31 µM	1.93 µM	6.56 µM	1.33 µM	1.6 µM	1.38 µM	0.583 µM	0.386 µM	0.482 µM	1.33 µM	1.1 µM	0.49 µM	0.887 µM
C=CCc1cc(Nc2c3ccc(Cl)cc3nc3ccc(OC)cc23)cc(CN(CC)CC)c1O	10.1 µM	11.1 µM	13.5 µM	12.3 µM	7.94 µM	5.17 µM	18.1 µM	2.49 µM	11.4 µM	11 µM	2.31 µM	0.661 µM	2.92 µM	2.08 µM	2.1 µM	0.938 µM	3.37 µM	1.24 µM	1.97 µM	2.02 µM
C[C@@H]1Cc2cc(O)ccc2[C@H]2CC[C@]3(C)/C(=C/COCCN(C)C)CC[C@H]3[C@H]12 (tested in a mixture with another compound)	0.618 µM	0.472 µM	0.739 µM	0.895 µM	0.612 µM	0.474 µM	1.46 µM	0.453 µM	0.482 µM	0.514 µM	0.198 µM	0.145 µM	0.285 µM	0.309 µM	< 0.0208 µM	0.175 µM	0.456 µM	0.205 µM	0.214 µM	0.221 µM
N/C(=N\OC(=O)c1ccccc1)C(Cc1ccccc1)C(=O)NOC(=O)c1ccccc1 (configuration not stated)	8 µM	6.52 µM	2.83 µM	5.28 µM	10.3 µM	3.1 µM	22.6 µM	9.03 µM	13.8 µM	3.07 µM	3.04 µM	2.23 µM	1.37 µM	2.19 µM	2.78 µM	1.38 µM	7.76 µM	2.72 µM	3.02 µM	1.45 µM
O=C1C(OCCOc2ccccc2)=C(OCCOc2ccccc2)C(=O)c2ccccc21	> 100 µM	> 100 µM	> 100 µM	> 100 µM	> 100 µM	> 100 µM	> 100 µM	4.86 µM	> 100 µM	> 100 µM	34.6 µM	> 100 µM	9.26 µM	4.71 µM	7.74 µM	5.11 µM	16.5 µM	1.92 µM	4.7 µM	12.2 µM
O=c1c2cc(F)ccc2sc2c(NCCCNCCO)nc3ccccc3c12	3.07 µM	3.47 µM	3.69 µM	3.52 µM	2.94 µM	3.26 µM	3.25 µM	3.2 µM	3.14 µM	2.96 µM	1.53 µM	1.67 µM	1.77 µM	1.84 µM	1.41 µM	1.77 µM	1.75 µM	1.76 µM	1.62 µM	1.57 µM
Cc1[nH]nc(-c2ccon2)c1N=O	39.2 µM	31.3 µM	41.9 µM	38.4 µM	63.2 µM	34.6 µM	43.1 µM	34.3 µM	49.1 µM	46.6 µM										
CCOC(=O)c1cc2c(cc1Cl)SC(=Nc1ccccc1)N(S(=O)(=O)c1ccc(Br)s1)S2(=O)=O	32.6 µM	32.3 µM	44.2 µM	33.3 µM	45.8 µM	46.4 µM	64.5 µM	25.2 µM	34.3 µM	53.9 µM	17.5 µM	15.5 µM	23.3 µM	17.6 µM	16.5 µM	21.5 µM	24.1 µM	12.1 µM	16.6 µM	22.1 µM
C[n+]1c2ccccc2nc2c(N)cc(N)cc21	> 100 µM	> 100 µM	38.1 µM	> 100 µM	37.3 µM	31 µM	24.1 µM	7.09 µM	> 100 µM	> 100 µM	5.43 µM	8.04 µM	3.48 µM	13.7 µM	5.1 µM	3.6 µM	10.3 µM	2.56 µM	10.7 µM	26.2 µM
COC(=O)c1cc(-c2ccc(OC)c(OC)c2)[nH]c1N/N=C/c1c(Cl)cccc1Cl	4.32 µM	19.5 µM	10.1 µM	9.69 µM	1.44 µM	2.07 µM	71.2 µM	4.56 µM	12.7 µM	3.25 µM	0.83 µM	0.708 µM	1.17 µM	0.4 µM	0.301 µM	0.257 µM	0.97 µM	0.387 µM	0.443 µM	0.834 µM
COc1ccc2c(c1)C(=O)c1c-2c(OCCN(C)C)nc2ccccc12	16.5 µM	7.8 µM	12.7 µM	3.28 µM	10.9 µM		15.4 µM	16.6 µM	3.26 µM	2.76 µM	4.06 µM	2.05 µM	2.29 µM	1.19 µM	1.76 µM		4.53 µM	4.6 µM	0.823 µM	0.962 µM
O=C(O)c1ccccc1NC(=S)c1ccccc1	> 100 µM	> 100 µM	> 100 µM	> 100 µM	> 100 µM	> 100 µM		> 100 µM	> 100 µM	> 100 µM										
Cn1ccnc1Oc1ccc(Cl)cc1	24.7 µM	49.1 µM	65.6 µM		38.3 µM		27.4 µM	27.1 µM	26.4 µM	23.9 µM										
Cc1ccc(C2C3Cc4ccccc4C3=NN2c2ccc(S(=O)(=O)/N=c3\scc(-c4ccccc4)n3-c3ccccc3)cc2)cc1 (configuration not stated)	> 100 µM	65.7 µM	> 100 µM	65.2 µM	33.7 µM	40.1 µM		26 µM	31.6 µM	55.4 µM	32 µM	21.5 µM	40.2 µM	20.2 µM	5.71 µM	19.1 µM		13.2 µM	15.7 µM	18.4 µM
